# Source: patent publication US20220409694A1, “POLYPEPTIDE, AND PREPARATION METHOD THEREFOR AND USE THEREOF” (SHANXI JINBO BIO-PHARMACEUTICAL CO., LTD., priority 2020, published 2022)
# Experiments:
# [1] = system: SARS-CoV-2 live virus (nCoV-SH01 strain); experiment: Inhibition of SARS-CoV-2 live virus on human intestinal cell line CaCO2 (viral RNA in supernatant); format: cell-based; settings: CaCO2 cells, 48 hours, read-out: half inhibitory concentration, SARS-CoV-2 live virus
# Rs3367-CoV pseudovirus = settings: 72 h
# WIV1-CoV pseudovirus = settings: 72 h
# 2019-nCoV pseudovirus = settings: for IC50: 72 h
# [2] = system: SARS-CoV-2 live virus (nCoV-SH01 strain); parameters: species or system transgenic human-ACE2 mice; settings: in vivo
# [3] = molecular target: T1, 2019-HR1P (derived from the HR1 region of 2019-nCoV) (Severe acute respiratory syndrome coronavirus 2, UniProt P0DTC2); experiment: Native PAGE (N-PAGE) of polypeptide mixed with 2019-HR1P; format: binding; settings: 30 μM each, 37° C. for 30 minutes
# [4] = molecular target: T1, 2019-HR1P (derived from the HR1 region of 2019-nCoV); experiment: Circular dichroism spectroscopy of polypeptide mixed with 2019-HR1P; format: binding; settings: 10 μM, phosphate buffer pH 7.2, 4° C.
# [5] = system: cell-cell fusion mediated by the S protein of 2019-nCoV; format: cell-based
# SARS-CoV pseudovirus = settings: 72 h
# 2019-nCoV live virus = settings: for IC50: 72 h; for inhibitory activity relative to EK1, 2019-nCoV live virus: fold higher than EK1
Compound,IC50 [1] [nM],IC50 (Rs3367-CoV pseudovirus) [nM],IC50 (WIV1-CoV pseudovirus) [nM],IC50 (2019-nCoV pseudovirus) [nM],SARS-CoV-2 viral load in the intestine [2],SARS-CoV-2 viral load in the lung [2],complex formation with 2019-HR1P in N-PAGE [3],secondary structure of mixture with 2019-HR1P by circular dichroism [4],inhibitory effect on cell-cell fusion mediated by the S protein of 2019-nCoV (in words) [5],IC50 (SARS-CoV pseudovirus) [nM],SARS-CoV-2 viral titer in the intestine [2],SARS-CoV-2 viral titer in the lung [2],IC50 (2019-nCoV live virus) [nM],"inhibitory activity relative to EK1, 2019-nCoV live virus (2019-nCoV live virus) [times]",activity in pseudovirus inhibition experiments (in words) (2019-nCoV pseudovirus)
"CC[C@H](C)[C@H](NC(=O)[C@H](C)NC(=O)[C@H](CCC(=O)O)NC(=O)[C@H](CCC(=O)O)NC(=O)[C@H](CC(C)C)NC(=O)[C@H](CCCCN)NC(=O)[C@H](CCCCN)NC(=O)[C@H](CCSC)NC(=O)[C@H](CCC(=O)O)NC(=O)[C@H](Cc1ccc(O)cc1)NC(=O)[C@H](CCC(=O)O)NC(=O)[C@H](CC(C)C)NC(=O)[C@H](CC(=O)O)NC(=O)[C@H](CC(C)C)NC(=O)[C@H](Cc1ccccc1)NC(=O)[C@@H](NC(=O)[C@@H](NC(=O)[C@H](CC(N)=O)NC(=O)[C@@H](NC(=O)[C@H](CCC(N)=O)NC(=O)[C@H](CC(=O)O)NC(=O)[C@H](CC(C)C)NC(=O)[C@@H](N)CO)[C@@H](C)CC)C(C)C)[C@@H](C)O)C(=O)N[C@@H](CCCCN)C(=O)N[C@@H](CCCCN)C(=O)N[C@@H](CC(C)C)C(=O)N[C@@H](CCC(=O)O)C(=O)N[C@@H](CCC(=O)O)C(=O)N[C@@H](CO)C(=O)N[C@@H](Cc1ccc(O)cc1)C(=O)N[C@H](C(=O)N[C@@H](CC(=O)O)C(=O)N[C@@H](CC(C)C)C(=O)N[C@@H](CCCCN)C(=O)N[C@@H](CCC(=O)O)C(=O)N[C@@H](CC(C)C)C(=O)O)[C@@H](C)CC [EK1, reference compound]",573,4000,2940,2490,significantly reduce,significantly reduce,formation of a six-helix bundle complex,formed a 6-HB complex,very good inhibitory effect,1890,,,,,
CC[C@H](C)[C@H](NC(=O)[C@H](C)NC(=O)[C@H](CCC(=O)O)NC(=O)[C@H](CCC(=O)O)NC(=O)[C@H](CC(C)C)NC(=O)[C@H](CCCCN)NC(=O)[C@H](CCCCN)NC(=O)[C@H](CCSC)NC(=O)[C@H](CCC(=O)O)NC(=O)[C@H](Cc1ccc(O)cc1)NC(=O)[C@H](CCC(=O)O)NC(=O)[C@H](CC(C)C)NC(=O)[C@H](CC(=O)O)NC(=O)[C@H](CC(C)C)NC(=O)[C@H](Cc1ccccc1)NC(=O)[C@@H](NC(=O)[C@@H](NC(=O)[C@H](CC(N)=O)NC(=O)[C@@H](NC(=O)[C@H](CCC(N)=O)NC(=O)[C@H](CC(=O)O)NC(=O)[C@H](CC(C)C)NC(=O)[C@@H](N)CO)[C@@H](C)CC)C(C)C)[C@@H](C)O)C(=O)N[C@@H](CCCCN)C(=O)N[C@@H](CCCCN)C(=O)N[C@@H](CC(C)C)C(=O)N[C@@H](CCC(=O)O)C(=O)N[C@@H](CCC(=O)O)C(=O)N[C@@H](CO)C(=O)N[C@@H](Cc1ccc(O)cc1)C(=O)N[C@H](C(=O)N[C@@H](CC(=O)O)C(=O)N[C@@H](CC(C)C)C(=O)N[C@@H](CCCCN)C(=O)N[C@@H](CCC(=O)O)C(=O)N[C@@H](CC(C)C)C(=O)NCC(=O)N[C@@H](CO)C(=O)NCC(=O)N[C@@H](CO)C(=O)NCC(=O)NCCOCCOCCOCCOCCC(=O)N[C@@H](CSCC(=O)O[C@H]1CC[C@@]2(C)C(=CC[C@H]3[C@@H]4CC[C@H]([C@H](C)CCCC(C)C)[C@@]4(C)CC[C@@H]32)C1)C(=O)O)[C@@H](C)CC [EK1-chol],5.5,30,40,20,,,,,very good inhibitory effect,10,significantly reduce,significantly reduce,36.5,67,
CCCCCCCCCCCCCCCC(=O)NCCCC[C@H](NC(=O)CCOCCOCCOCCOCCNC(=O)CNC(=O)[C@H](CO)NC(=O)CNC(=O)[C@H](CC(C)C)NC(=O)[C@H](CCC(=O)O)NC(=O)[C@H](CCCCN)NC(=O)[C@H](CC(C)C)NC(=O)[C@H](CC(=O)O)NC(=O)[C@@H](NC(=O)[C@H](Cc1ccc(O)cc1)NC(=O)[C@H](CO)NC(=O)[C@H](CCC(=O)O)NC(=O)[C@H](CCC(=O)O)NC(=O)[C@H](CC(C)C)NC(=O)[C@H](CCCCN)NC(=O)[C@H](CCCCN)NC(=O)[C@@H](NC(=O)[C@H](C)NC(=O)[C@H](CCC(=O)O)NC(=O)[C@H](CCC(=O)O)NC(=O)[C@H](CC(C)C)NC(=O)[C@H](CCCCN)NC(=O)[C@H](CCCCN)NC(=O)[C@H](CCSC)NC(=O)[C@H](CCC(=O)O)NC(=O)[C@H](Cc1ccc(O)cc1)NC(=O)[C@H](CCC(=O)O)NC(=O)[C@H](CC(C)C)NC(=O)[C@H](CC(=O)O)NC(=O)[C@H](CC(C)C)NC(=O)[C@H](Cc1ccccc1)NC(=O)[C@@H](NC(=O)[C@@H](NC(=O)[C@H](CC(N)=O)NC(=O)[C@@H](NC(=O)[C@H](CCC(N)=O)NC(=O)[C@H](CC(=O)O)NC(=O)[C@H](CC(C)C)NC(=O)[C@@H](N)CO)[C@@H](C)CC)C(C)C)[C@@H](C)O)[C@@H](C)CC)[C@@H](C)CC)C(=O)O [EK1-plam],,130,100,360,,,,,very good inhibitory effect,170,,,436,5,
"ANQFNSAIGKIQDSLSSTASALGKLQDVVNQNAQALNTLVKQ (SEQ ID NO. 3) [2019-HR1P, reference compound]",,,,,,,,,no activity,,,,,,no activity
